Experimental data taken from ChEMBL document CHEMBL1909046, “DrugMatrix in vitro pharmacology data”.

What was measured:
Cytochrome P450 3A4 = Cytochrome P450 3A4 (Homo sapiens, UniProt P08684); conditions: bti-tn-5b1-4; also: in other assays of this panel Not Active means under 50% inhibition at 10 µM
[1] = biological target: Beta-1 adrenergic receptor (Homo sapiens, UniProt P08588); test: DRUGMATRIX: Adrenergic beta1 radioligand binding (ligand: [125I] Cyanopindolol); assay type: cell membranes, CHO-K1, Membrane; conditions: Not Active = under 50% inhibition at 10 µM
Beta-1 adrenergic receptor, sequence (P08588 whole entry): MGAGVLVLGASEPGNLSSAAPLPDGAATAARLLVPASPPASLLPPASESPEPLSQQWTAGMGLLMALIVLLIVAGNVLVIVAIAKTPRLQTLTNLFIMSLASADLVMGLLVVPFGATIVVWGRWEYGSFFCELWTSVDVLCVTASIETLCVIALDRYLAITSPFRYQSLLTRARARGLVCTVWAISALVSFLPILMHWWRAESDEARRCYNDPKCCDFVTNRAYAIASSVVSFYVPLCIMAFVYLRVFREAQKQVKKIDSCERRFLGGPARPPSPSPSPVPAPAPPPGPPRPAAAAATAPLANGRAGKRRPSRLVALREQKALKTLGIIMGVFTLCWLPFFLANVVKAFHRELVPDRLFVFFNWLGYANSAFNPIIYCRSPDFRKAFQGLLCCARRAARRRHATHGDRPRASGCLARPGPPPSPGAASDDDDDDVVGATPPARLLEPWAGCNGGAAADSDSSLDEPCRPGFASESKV

[2] = biological target: Tyrosine-protein kinase Lck (Homo sapiens, UniProt P06239); test: DRUGMATRIX: Protein Tyrosine Kinase, LCK enzyme inhibition (substrate: Poly(Glu:Tyr)); assay type: cell-based, Insect cells; conditions: insect cells; Not Active = under 50% inhibition at 10 µM
Tyrosine-protein kinase Lck, sequence (P06239 whole entry): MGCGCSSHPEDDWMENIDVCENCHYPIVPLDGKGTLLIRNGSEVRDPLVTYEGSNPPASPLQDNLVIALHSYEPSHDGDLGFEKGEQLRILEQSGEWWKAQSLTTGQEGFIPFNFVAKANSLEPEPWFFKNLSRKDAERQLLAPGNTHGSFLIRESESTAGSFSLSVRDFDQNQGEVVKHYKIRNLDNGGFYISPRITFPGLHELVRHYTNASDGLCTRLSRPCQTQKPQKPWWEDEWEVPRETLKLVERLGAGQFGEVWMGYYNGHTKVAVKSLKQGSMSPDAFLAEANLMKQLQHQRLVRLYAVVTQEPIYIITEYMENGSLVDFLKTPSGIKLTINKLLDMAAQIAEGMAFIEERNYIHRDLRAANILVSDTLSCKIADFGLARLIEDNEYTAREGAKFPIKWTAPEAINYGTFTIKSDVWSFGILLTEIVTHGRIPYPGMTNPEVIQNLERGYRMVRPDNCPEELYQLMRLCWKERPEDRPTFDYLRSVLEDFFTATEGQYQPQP

[3] = biological target: T1, Alpha-2C adrenergic receptor (Homo sapiens, UniProt P18825); test: DRUGMATRIX: Adrenergic Alpha-2C radioligand binding (ligand: [3H] MK-912); assay type: cell membranes, Sf9, Membrane
T1 sequence (P18825 whole entry): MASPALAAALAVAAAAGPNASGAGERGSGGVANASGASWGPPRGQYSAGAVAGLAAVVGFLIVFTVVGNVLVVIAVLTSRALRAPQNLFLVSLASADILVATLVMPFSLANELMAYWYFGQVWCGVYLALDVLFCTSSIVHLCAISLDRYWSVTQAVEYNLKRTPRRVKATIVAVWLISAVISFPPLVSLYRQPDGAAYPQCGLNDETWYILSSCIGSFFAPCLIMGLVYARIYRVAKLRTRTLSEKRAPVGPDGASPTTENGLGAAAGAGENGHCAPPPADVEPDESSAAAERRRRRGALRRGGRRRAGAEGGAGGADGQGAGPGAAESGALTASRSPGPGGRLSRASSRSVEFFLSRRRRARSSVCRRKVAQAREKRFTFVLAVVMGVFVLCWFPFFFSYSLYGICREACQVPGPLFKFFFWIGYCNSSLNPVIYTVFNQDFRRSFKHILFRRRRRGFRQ

Thromboxane-A synthase = biological target: T2, Thromboxane-A synthase (Homo sapiens, UniProt P24557); test: biochemical; assay type: tissue-based, Platelet; conditions: platelet;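 also: enzyme inhibition assay with PGH2 supplied as substrate; in other assays of this panel Not Active means under 50% inhibition at 10 µM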
T2 sequence (P24557 whole entry): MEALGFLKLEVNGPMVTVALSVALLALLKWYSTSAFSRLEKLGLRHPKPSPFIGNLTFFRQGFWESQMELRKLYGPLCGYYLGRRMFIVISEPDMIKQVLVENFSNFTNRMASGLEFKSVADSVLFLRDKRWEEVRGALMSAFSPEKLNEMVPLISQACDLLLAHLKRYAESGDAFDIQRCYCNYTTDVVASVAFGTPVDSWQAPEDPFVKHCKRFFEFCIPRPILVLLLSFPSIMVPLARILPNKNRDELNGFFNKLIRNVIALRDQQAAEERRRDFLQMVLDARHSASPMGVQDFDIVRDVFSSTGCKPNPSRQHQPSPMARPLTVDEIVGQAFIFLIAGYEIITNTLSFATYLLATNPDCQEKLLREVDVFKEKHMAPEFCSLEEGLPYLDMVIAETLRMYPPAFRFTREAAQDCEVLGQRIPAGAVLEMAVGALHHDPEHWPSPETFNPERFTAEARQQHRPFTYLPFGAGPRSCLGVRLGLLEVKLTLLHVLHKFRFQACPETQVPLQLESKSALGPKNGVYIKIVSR

[4] = biological target: T3, Neuropeptide Y receptor type 1 (Homo sapiens, UniProt P25929); assay type: cell membranes, Membrane; conditions: sk-n-mc; also: in other assays of this panel Not Active means under 50% inhibition at 10 µM
T3 sequence (P25929 whole entry): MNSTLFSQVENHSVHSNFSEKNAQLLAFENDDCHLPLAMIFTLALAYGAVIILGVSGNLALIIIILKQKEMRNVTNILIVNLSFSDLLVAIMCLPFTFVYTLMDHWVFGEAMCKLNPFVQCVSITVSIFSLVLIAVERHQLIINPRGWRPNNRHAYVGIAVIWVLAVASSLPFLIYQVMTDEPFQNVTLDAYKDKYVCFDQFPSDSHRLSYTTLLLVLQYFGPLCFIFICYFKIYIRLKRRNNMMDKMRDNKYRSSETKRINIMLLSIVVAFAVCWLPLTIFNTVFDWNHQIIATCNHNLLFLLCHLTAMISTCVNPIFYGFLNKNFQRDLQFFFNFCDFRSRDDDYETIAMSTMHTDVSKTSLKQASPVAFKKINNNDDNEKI

Cytochrome P450 3A4, sequence (P08684 whole entry): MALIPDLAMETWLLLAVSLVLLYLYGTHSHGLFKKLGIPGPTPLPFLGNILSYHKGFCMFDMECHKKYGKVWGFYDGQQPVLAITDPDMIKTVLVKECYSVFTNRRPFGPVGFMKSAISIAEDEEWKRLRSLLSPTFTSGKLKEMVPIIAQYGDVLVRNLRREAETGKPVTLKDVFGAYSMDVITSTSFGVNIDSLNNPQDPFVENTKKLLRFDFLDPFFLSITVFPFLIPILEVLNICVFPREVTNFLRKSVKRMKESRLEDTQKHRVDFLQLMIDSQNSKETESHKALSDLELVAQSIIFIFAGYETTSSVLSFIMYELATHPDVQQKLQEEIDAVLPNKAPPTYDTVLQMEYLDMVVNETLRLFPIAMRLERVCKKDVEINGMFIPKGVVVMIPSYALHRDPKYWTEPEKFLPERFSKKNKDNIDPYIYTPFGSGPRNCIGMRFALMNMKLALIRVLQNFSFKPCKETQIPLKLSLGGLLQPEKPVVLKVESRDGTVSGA

Compound | IC50 (Cytochrome P450 3A4) | Ki (Cytochrome P450 3A4) | IC50 ([1]; cho-k1) | IC50 [2] | IC50 ([3]; sf9) | IC50 (Thromboxane-A synthase) | IC50 [4] | IC50 ([1]; read-out: IC50) [µM] | Ki ([1]; read-out: Ki) [µM] | IC50 ([3]; read-out: IC50) [µM] | Ki ([3]; read-out: Ki) [µM] | Ki ([1]; cho-k1) | Ki [2] | Ki ([3]; sf9) | Ki (Thromboxane-A synthase) | Ki [4]
Cc1nnc2n1-c1ccc(Cl)cc1C(c1ccccc1)=NC2 [ALPRAZOLAM] | Not Active | Not Active | Not Active | Not Active | Not Active | Not Active | Not Active | – | – | – | – | – | – | – | – | –
COC(=O)CCc1ccc(OCC(O)CNC(C)C)cc1 (stereo not drawn) [ESMOLOL] | Not Active | Not Active | – | Not Active | Not Active | Not Active | Not Active | 0.197 | 0.114 | – | – | – | – | – | – | –
COc1ccc2cc3[n+](cc2c1OC)CCc1cc2c(cc1-3)OCO2.[Cl-] [BERBERINE CHLORIDE] | Not Active | Not Active | Not Active | Not Active | – | Not Active | Not Active | – | – | 2.84 | 0.412 | – | – | – | – | –
NC(=O)C[S+]([O-])C(c1ccccc1)c1ccccc1 (stereo not drawn) [MODAFINIL] | Not Active | Not Active | Not Active | Not Active | Not Active | Not Active | Not Active | – | – | – | – | – | – | – | – | –
CC(C)=CCC/C(C)=C/CO [GERANIOL] | – | – | Not Active | Not Active | Not Active | Not Active | Not Active | – | – | – | – | – | – | – | – | –
NCCCC(O)(P(=O)(O)O)P(=O)(O)O [ALENDRONIC ACID] | – | – | Not Active | Not Active | Not Active | Not Active | Not Active | – | – | – | – | – | – | – | – | –
C[C@@H]1CC[C@@]2(OC1)O[C@H]1[C@@H](O)[C@H]3[C@@H]4CC[C@H]5C[C@@H](O[C@@H]6O[C@H](CO)[C@H](O[C@@H]7O[C@H](CO)C(O)[C@H](O[C@@H]8OC[C@@H](O)[C@H](O)[C@H]8O)[C@H]7O[C@@H]7O[C@H](CO)[C@H](O)[C@H](O[C@@H]8O[C@H](CO)[C@@H](O)[C@H](O)[C@H]8O)[C@H]7O)[C@H](O)[C@H]6O)[C@H](O)C[C@]5(C)[C@H]4CC[C@]3(C)[C@H]1[C@@H]2C (stereo partly drawn) [DIGITONIN] | Not Active | Not Active | Not Active | Not Active | Not Active | Not Active | Not Active | – | – | – | – | – | – | – | – | –
O=C1CN=C(c2ccccc2Cl)c2cc([N+](=O)[O-])ccc2N1 [CLONAZEPAM] | Not Active | Not Active | Not Active | Not Active | Not Active | Not Active | Not Active | – | – | – | – | – | – | – | – | –
AURANOFIN | Not Active | Not Active | Not Active | Not Active | Not Active | Not Active | Not Active | – | – | – | – | Not Active | Not Active | Not Active | Not Active | Not Active
COC(=O)Nc1nc2ccc(C(=O)c3cccs3)cc2[nH]1 [NOCODAZOLE] | Not Active | Not Active | Not Active | Not Active | Not Active | Not Active | Not Active | – | – | – | – | – | – | – | – | –
C[C@H]1O[C@@H](n2cc(F)c(=O)[nH]c2=O)[C@H](O)[C@@H]1O [DOXIFLURIDINE] | Not Active | Not Active | Not Active | Not Active | Not Active | Not Active | Not Active | – | – | – | – | – | – | – | – | –
CC(C(=O)O)c1ccc2oc(-c3ccc(Cl)cc3)nc2c1 (stereo not drawn) [BENOXAPROFEN] | Not Active | Not Active | Not Active | Not Active | Not Active | Not Active | Not Active | – | – | – | – | – | – | – | – | –
GADOPENTETATE DIMEGLUMINE | Not Active | Not Active | Not Active | Not Active | Not Active | Not Active | Not Active | – | – | – | – | Not Active | Not Active | Not Active | Not Active | Not Active
Nc1ccc2c3c(cccc13)C(=O)NC2=O | Not Active | Not Active | Not Active | Not Active | Not Active | Not Active | Not Active | – | – | – | – | – | – | – | – | –
C[n+]1ccccc1/C=N/O.[Cl-] [PRALIDOXIME CHLORIDE] | Not Active | Not Active | Not Active | Not Active | Not Active | Not Active | Not Active | – | – | – | – | – | – | – | – | –
O=c1cc(N2CCOCC2)oc2c(-c3ccccc3)cccc12 [LY-294002] | Not Active | Not Active | Not Active | – | Not Active | Not Active | Not Active | – | – | – | – | – | – | – | – | –
CC(=O)[C@@]1(O)CC[C@H]2[C@@H]3CCC4=CC(=O)CC[C@]4(C)[C@H]3CC[C@@]21C [HYDROXYPROGESTERONE] | – | – | Not Active | Not Active | Not Active | Not Active | Not Active | – | – | – | – | – | – | – | – | –
COC1=C(OC)C(=O)C(CCCCCCCCCCO)=C(C)C1=O [IDEBENONE] | – | – | Not Active | Not Active | Not Active | Not Active | Not Active | – | – | – | – | – | – | – | – | –
C[C@@H]1C[C@H]2[C@@H]3CCC4=CC(=O)C=C[C@]4(C)[C@@]3(F)[C@@H](O)C[C@]2(C)[C@@]1(O)C(=O)CO [DEXAMETHASONE] | – | – | Not Active | Not Active | Not Active | Not Active | Not Active | – | – | – | – | – | – | – | – | –
CC(C)c1cccc(C(C)C)c1O [PROPOFOL] | – | – | Not Active | Not Active | Not Active | Not Active | Not Active | – | – | – | – | – | – | – | – | –
COc1cc(N)c(Cl)cc1C(=O)NC1CCN(CCCOc2ccc(F)cc2)CC1OC (stereo not drawn) [CISAPRIDE] | – | – | Not Active | Not Active | – | Not Active | Not Active | – | – | – | – | – | – | – | – | –
CCCNCC(O)COc1ccccc1C(=O)CCc1ccccc1 (stereo not drawn) [PROPAFENONE] | – | – | – | Not Active | Not Active | Not Active | Not Active | – | – | – | – | – | – | – | – | –
CC(C)NCC(O)COc1cccc2[nH]ccc12 (stereo not drawn) [PINDOLOL] | – | – | – | Not Active | Not Active | Not Active | Not Active | – | – | – | – | – | – | – | – | –
N=C(N)NC(=O)Cc1c(Cl)cccc1Cl [GUANFACINE] | Not Active | Not Active | Not Active | Not Active | – | Not Active | Not Active | – | – | – | – | – | – | – | – | –
COc1cc2nc(N3CCN(C(=O)c4ccco4)CC3)nc(N)c2cc1OC [PRAZOSIN] | Not Active | Not Active | Not Active | Not Active | – | Not Active | Not Active | – | – | – | – | – | – | – | – | –
COc1cc([C@@H]2c3cc4c(cc3[C@@H](O[C@@H]3O[C@@H]5CO[C@@H](C)O[C@H]5[C@H](O)[C@H]3O)[C@H]3COC(=O)[C@H]23)OCO4)cc(OC)c1O [ETOPOSIDE] | – | – | Not Active | Not Active | Not Active | Not Active | Not Active | – | – | – | – | – | – | – | – | –
COc1ccc2c3c1O[C@H]1C[C@@H](O)C=C[C@@]31CCN(C)C2 [GALANTAMINE] | – | – | Not Active | Not Active | Not Active | Not Active | Not Active | – | – | – | – | – | – | – | – | –
CN1[C@@H]2CC[C@H]1C[C@@H](OC(=O)C(CO)c1ccccc1)C2 (stereo partly drawn) [ATROPINE] | – | – | Not Active | Not Active | Not Active | Not Active | Not Active | – | – | – | – | – | – | – | – | –
CN/C(=N\CCSCc1nc[nH]c1C)NC#N [CIMETIDINE] | – | – | Not Active | Not Active | Not Active | Not Active | Not Active | – | – | – | – | – | – | – | – | –
